As a reminder, the Ki is a measure of affinity in units of concentration, obtained from inhibition or displacement. High values mean a looser hold on the target, low ones a stronger hold on the target. Usually Kd stands for the constant that tells how readily two partners part at equilibrium. High values mean lower affinity, low ones higher affinity. For orientation: IC50 means the concentration needed to halve the response being measured. Low values mean inhibition by little substance, high ones a need for much substance. As usually defined, the inhibition is the relative decrease from the control value, in per cent.

The structures appear in SMILES notation.

In experiment [1] the target is T1, Bifunctional ligase/repressor BirA (Staphylococcus aureus, UniProt A0A0E7NXW5).
T1 sequence (A0A0E7NXW5 whole entry): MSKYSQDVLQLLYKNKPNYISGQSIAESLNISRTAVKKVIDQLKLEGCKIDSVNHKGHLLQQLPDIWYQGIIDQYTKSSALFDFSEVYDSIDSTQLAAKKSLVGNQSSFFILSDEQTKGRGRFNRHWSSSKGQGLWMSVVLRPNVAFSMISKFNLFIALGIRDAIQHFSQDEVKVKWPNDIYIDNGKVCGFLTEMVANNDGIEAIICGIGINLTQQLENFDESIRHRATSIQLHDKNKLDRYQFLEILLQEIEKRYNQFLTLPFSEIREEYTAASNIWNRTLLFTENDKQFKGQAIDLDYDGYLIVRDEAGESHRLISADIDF
Briefly: Inhibition of Staphylococcus aureus biotin protein ligase by LC/MS-SIM analysis.

The target of a further experiment is Acetylcholinesterase (Electrophorus electricus, UniProt O42275).
In experiment [2] the target is HTH-type transcriptional regulator EthR (Mycobacterium tuberculosis, UniProt P9WMC1). The experiment in a line: Inhibition of Mycobacterium tuberculosis EthR.
A further experiment has as its target Carbonic anhydrase 2 (Homo sapiens, UniProt P00918). Briefly: Inhibition of CA2 (unknown origin).
In the next experiment the target is T2, Chitinase B (Serratia marcescens, UniProt P11797).
T2 sequence (P11797 whole entry): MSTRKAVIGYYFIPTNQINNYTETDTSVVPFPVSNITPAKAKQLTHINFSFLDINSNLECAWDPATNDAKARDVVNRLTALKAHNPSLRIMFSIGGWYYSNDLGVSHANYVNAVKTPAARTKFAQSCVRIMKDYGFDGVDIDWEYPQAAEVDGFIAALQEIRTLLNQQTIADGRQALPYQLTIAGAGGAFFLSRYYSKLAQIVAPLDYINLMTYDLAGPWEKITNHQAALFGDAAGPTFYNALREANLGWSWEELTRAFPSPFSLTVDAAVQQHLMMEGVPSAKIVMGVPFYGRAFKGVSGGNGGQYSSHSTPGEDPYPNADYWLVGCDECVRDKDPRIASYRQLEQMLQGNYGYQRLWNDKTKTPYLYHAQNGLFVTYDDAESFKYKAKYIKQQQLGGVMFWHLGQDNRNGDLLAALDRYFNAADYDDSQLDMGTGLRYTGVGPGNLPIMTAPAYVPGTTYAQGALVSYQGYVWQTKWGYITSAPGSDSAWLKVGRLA
The experiment in a line: Inhibition of Serratia marcescens 6x-His-tagged ChiB after 20 hrs by LCMS-SIR analysis.

For another experiment, the species on record is Homo sapiens. The experiment in a line: Inhibition of human recombinant 14-3-3 protein at 300 uM after 8 hrs.

Chain of Acetylcholinesterase (O42275 whole entry): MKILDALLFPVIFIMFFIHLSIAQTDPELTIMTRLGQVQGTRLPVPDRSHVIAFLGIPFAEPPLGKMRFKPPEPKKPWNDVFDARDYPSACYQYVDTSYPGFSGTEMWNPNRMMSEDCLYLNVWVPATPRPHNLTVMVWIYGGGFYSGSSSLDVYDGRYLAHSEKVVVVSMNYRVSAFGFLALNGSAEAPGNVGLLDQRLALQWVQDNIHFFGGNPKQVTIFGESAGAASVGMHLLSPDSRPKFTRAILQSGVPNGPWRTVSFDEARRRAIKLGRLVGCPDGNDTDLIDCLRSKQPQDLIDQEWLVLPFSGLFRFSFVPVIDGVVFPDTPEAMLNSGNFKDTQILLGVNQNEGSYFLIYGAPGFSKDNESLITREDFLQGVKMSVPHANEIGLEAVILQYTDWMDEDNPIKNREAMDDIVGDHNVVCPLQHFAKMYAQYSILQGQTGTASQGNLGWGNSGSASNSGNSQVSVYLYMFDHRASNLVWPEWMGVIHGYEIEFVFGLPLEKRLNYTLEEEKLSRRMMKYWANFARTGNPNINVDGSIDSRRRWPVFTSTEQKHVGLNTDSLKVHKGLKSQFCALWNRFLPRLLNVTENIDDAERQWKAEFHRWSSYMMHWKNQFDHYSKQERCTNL
Chain of HTH-type transcriptional regulator EthR (P9WMC1 whole entry): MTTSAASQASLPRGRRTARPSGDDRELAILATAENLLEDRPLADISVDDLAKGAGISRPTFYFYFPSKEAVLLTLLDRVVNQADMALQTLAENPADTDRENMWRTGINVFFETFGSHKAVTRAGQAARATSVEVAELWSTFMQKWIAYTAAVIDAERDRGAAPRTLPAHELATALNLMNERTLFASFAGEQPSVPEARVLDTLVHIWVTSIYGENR
Description for Acetylcholinesterase: Binding affinity to electric eel AChE after 24 hrs by LC/MS-SIM analysis

`Nc1ncnc2c1ncn2CCCCn1cc(CCCCC[C@@H]2SC[C@@H]3NC(=O)N[C@@H]32)nn1` displayed a Ki in experiment [1] of 660 nM.

In turn, `CC[N+](C)(CC)CCC[n+]1c(-c2ccccc2)c2cc(N)ccc2c2ccccc21` came in with a Kd at Acetylcholinesterase of 1100 nM.

The molecule `O=C(Cn1cc(CNS(=O)(=O)c2ccc(I)cc2)nn1)N1CCC(c2nc(-c3cccs3)no2)CC1` showed an IC50 in experiment [2] of 580 nM.

Consider `CCOC(=O)c1cccc(CSCc2ccc(S(N)(=O)=O)cc2)c1`, for which the concentration for half-maximal inhibition (IC50) against Carbonic anhydrase 2 stood at 59 nM.

With `[H]/N=C(/NCCC[C@H](NC(=O)Cn1nncc1CO/N=C/c1ccnc2ccccc12)C(=O)N(Cc1ccccc1)Cc1ccccc1)NC(=O)NC`, the IC50 against Chitinase B was found to be 22 nM.

In the case of `C=CC(C)(C)OC[C@H]1O[C@H](O[C@@H]2C3=C([C@H](C)CNC(=O)[C@H]4CO4)C[C@H](O)[C@]3(C)/C=C3/[C@@H](COC)CC[C@@]3(C)[C@@H](C)[C@H]2O)[C@H](O)[C@@H](O)[C@@H]1O`, in the experiment filed under Homo sapiens, the inhibition came out at 37%.

The values are drawn from ChEMBL document CHEMBL4229404, “Druggability Assessment of Targets Used in Kinetic Target-Guided Synthesis” (J Med Chem, 2018).
